Source: ChEMBL document CHEMBL5356966, “A dual mechanism with H2S inhibition and membrane damage of morusin from Morus alba Linn. against MDR-MRSA” (2024)
Converted amounts (≈) assume the structure as drawn. The source made the active and inactive calls. The rule behind the calls is not given here.

What was measured:
Cell membrane [1] = assay: Disruption of bacterial cell membrane in methicilin-resistant Staphylococcus aureus 003 assessed as increase in green fluorescence intensity incubated for 1 hr by DAPI/PI staning based confocal laser microscopic analysis
Staphylococcus aureus [2] = assay: Antibacterial activity methicillin-resistant Staphylococcus aureus 003 assessed as inhibition of bacterial growth incubated for 24 hrs by CLSI based analysis; assay type: functional
Staphylococcus aureus [3] = assay: Antibacterial activity methicillin-resistant Staphylococcus aureus 011 assessed as inhibition of bacterial growth incubated for 24 hrs by CLSI based analysis; assay type: functional
Enterococcus [4] = assay: Antibacterial activity vancomycin-resistant Enterococcus assessed as inhibition of bacterial growth incubated for 24 hrs by CLSI based analysis; assay type: functional
Staphylococcus aureus [5] = assay: Antibacterial activity Staphylococcus aureus assessed as inhibition of bacterial growth incubated for 24 hrs by CLSI based analysis; assay type: functional
Cell membrane [6] = assay: Induction of inner membrane permeability in vancomycin-resistant Enterococcus assessed as increase in fluorescence intensity incubated for 30 mins
Staphylococcus aureus [7] = assay: Bactericidal activity against Staphylococcus aureus at 2 to 4 times MIC measured after 30 mins by time kill assay; assay type: functional, organism-based
Cell membrane [8] = assay: Induction of inner membrane permeability in methicillin-resistant Staphylococcus aureus 003 assessed as fold change in MIC in presence of phosphatidylglycerol; assay type: subcellular
Staphylococcus aureus [9] = assay: Induction of resistance development in Staphylococcus aureus incubated for 24 hrs treated over 20 serial passages by broth microdilution analysis; assay type: functional, organism-based
Staphylococcus aureus [10] = assay: Bactericidal activity against methicilin-resistant Staphylococcus aureus 003 at 2 to 4 times MIC measured after 24 hrs by time kill assay; assay type: functional, organism-based
Staphylococcus aureus [11] = assay: Antibacterial activity methicillin-resistant Staphylococcus aureus 003 assessed as downregulation of fabD expression by qRT-PCR analysis; assay type: functional, organism-based
Staphylococcus aureus [12] = assay: Antibacterial activity methicillin-resistant Staphylococcus aureus 003 assessed as increase in fluorescence intensity at 1 time MIC; assay type: functional
Staphylococcus aureus [13] = assay: Antibacterial activity methicillin-resistant Staphylococcus aureus 003 assessed as decrease in membrane fluidity incubated for 50 mins; assay type: functional, organism-based
Staphylococcus aureus [14] = assay: Bactericidal activity against Staphylococcus aureus at 2 to 4 times MIC measured after 24 hrs by time kill assay; assay type: functional, organism-based
Staphylococcus aureus [15] = assay: Antibacterial activity methicillin-resistant Staphylococcus aureus 003 assessed as downregulation of fabZ expression by qRT-PCR analysis; assay type: functional, organism-based
Cell membrane [16] = assay: Induction of inner membrane permeability in methicillin-resistant Staphylococcus aureus 003 assessed as fold change in MIC in presence of cardiolipin; assay type: subcellular
Staphylococcus aureus [17] = assay: Induction of resistance development Staphylococcus aureus incubated for 24 hrs treated over 11 serial passages by broth microdilution analysis; assay type: functional, organism-based
Cell membrane [18] = assay: Disruption of bacterial cell membrane in methicilin-resistant Staphylococcus aureus 003 assessed as as appearance of wrinkled cell incubated for 1 hr by DAPI/PI staning based confocal laser microscopic analysis; assay type: subcellular
Staphylococcus aureus [19] = assay: Antibacterial activity methicillin-resistant Staphylococcus aureus 003 assessed as downregulation of fabH expression by qRT-PCR analysis; assay type: functional, organism-based
Cell membrane [20] = assay: Induction of inner membrane permeability in methicillin-resistant Staphylococcus aureus 003 assessed as fold change in MIC in presence of peptidoglycan; assay type: subcellular
Staphylococcus aureus [21] = assay: Antibacterial activity methicillin-resistant Staphylococcus aureus 003 assessed as downregulation of plsY expression by qRT-PCR analysis; assay type: functional, organism-based
Staphylococcus aureus [22] = assay: Antibacterial activity methicillin-resistant Staphylococcus aureus 003 assessed as decrease in intracellular pH at 4 time MIC measured up to 74 mins; assay type: functional, organism-based
Enterococcus [23] = assay: Antibacterial activity vancomycin-resistant Enterococcus under […] condition at pH 5.5 to 9.5; assay type: functional, organism-based
Staphylococcus aureus [24] = assay: Antibacterial activity methicillin-resistant Staphylococcus aureus 003 assessed as ROS accumulation at 2 to 8 times MIC incubated for 60 mins; assay type: functional, organism-based
Staphylococcus aureus [25] = assay: In vivo antibacterial activity against methicilin-resistant Staphylococcus aureus infected in ICR mouse skin infection model assessed as reduction in bacterial burden at 10 mg/kg, ip preadministered with compound for 24 hrs followed by bacterial infection and measured after 3 days; assay type: functional; design: scale not given: the % may be the effect or the level left; conditions: time 96 hrs
Staphylococcus aureus [26] = assay: Bactericidal activity methicillin-resistant Staphylococcus aureus 003 assessed as inhibition of bacterial growth incubated for 24 hrs by CLSI based analysis; assay type: functional
Acinetobacter baumannii = assay: Antibacterial activity Acinetobacter baumannii assessed as inhibition of bacterial growth incubated for 24 hrs by CLSI based analysis; assay type: functional
Staphylococcus aureus [27] = assay: Bactericidal activity Staphylococcus aureus assessed as inhibition of bacterial growth incubated for 24 hrs by CLSI based analysis; assay type: functional
Staphylococcus aureus [28] = assay: Antibacterial activity methicillin-resistant Staphylococcus aureus 003 under […] condition at pH 5.5 to 9.5; assay type: functional, organism-based
Staphylococcus aureus [29] = assay: In vivo antibacterial activity against methicilin-resistant Staphylococcus aureus infected in ICR mouse skin infection model assessed as wound area at 20 mg/kg, ip preadministered with compound for 24 hrs followed by bacterial infection and measured after 3 days; assay type: functional; conditions: time 96 hrs
Enterococcus [30] = assay: Antibacterial activity vancomycin-resistant Enterococcus assessed as decrease in intracellular pH at 4 time MIC measured up to 74 mins; assay type: functional, organism-based
Enterococcus [31] = assay: Bactericidal activity vancomycin-resistant Enterococcus assessed as inhibition of bacterial growth incubated for 24 hrs by CLSI based analysis; assay type: functional
Staphylococcus aureus [32] = assay: Induction of resistance development in methicilin-resistant Staphylococcus aureus 003 incubated for 24 hrs treated over 11 serial passages by broth microdilution analysis; assay type: functional, organism-based
Staphylococcus aureus [33] = assay: In vivo antibacterial activity against methicilin-resistant Staphylococcus aureus infected in ICR mouse skin infection model assessed as wound area at 10 mg/kg, ip preadministered with compound for 24 hrs followed by bacterial infection and measured after 3 days; assay type: functional; conditions: time 96 hrs
Cell membrane [34] = assay: Induction of inner membrane permeability in Escherichia coli assessed as increase in fluorescence intensity measured for 15 mins in presence of Polymyxin B sulfate
Staphylococcus aureus [35] = assay: Antibacterial activity methicillin-resistant Staphylococcus aureus 003 assessed as increase in intracellular ATP level incubated for 30 mins; assay type: functional, organism-based
Escherichia coli = assay: Antibacterial activity Escherichia coli assessed as inhibition of bacterial growth incubated for 24 hrs by CLSI based analysis; assay type: functional
Staphylococcus aureus [36] = assay: Antibacterial activity methicillin-resistant Staphylococcus aureus 003 assessed as increase in fluorescence intensity by DiSC3(5) dye based analysis; assay type: functional, organism-based
Staphylococcus aureus [37] = assay: Induction of resistance development in methicilin-resistant Staphylococcus aureus incubated for 24 hrs treated over 20 serial passages by broth microdilution analysis; assay type: functional, organism-based
Staphylococcus aureus [38] = assay: Bactericidal activity methicillin-resistant Staphylococcus aureus 011 assessed as inhibition of bacterial growth incubated for 24 hrs by CLSI based analysis; assay type: functional
Staphylococcus aureus [39] = assay: Bactericidal activity against methicilin-resistant Staphylococcus aureus 003 at 8 times MIC measured after 24 hrs by time kill assay; assay type: functional, organism-based
Staphylococcus aureus [40] = assay: In vivo antibacterial activity against methicilin-resistant Staphylococcus aureus infected in ICR mouse skin infection model assessed as reduction in bacterial burden at 20 mg/kg, ip preadministered with compound for 24 hrs followed by bacterial infection and measured after 3 days; assay type: functional; design: scale not given: the % may be the effect or the level left; conditions: time 96 hrs
Staphylococcus aureus [41] = assay: Antibacterial activity methicillin-resistant Staphylococcus aureus 003 assessed as inhibition of H2S production at 1/4 times MIC; assay type: functional
Cell membrane [42] = assay: Induction of inner membrane permeability in methicillin-resistant Staphylococcus aureus 003 assessed as increase in fluorescence intensity incubated for 30 mins
Staphylococcus aureus [43] = assay: In vivo antibacterial activity against methicilin-resistant Staphylococcus aureus infected in ICR mouse skin infection model assessed as wound area at 5 mg/kg, ip preadministered with compound for 24 hrs followed by bacterial infection and measured after 3 days; assay type: functional; conditions: time 96 hrs
Staphylococcus aureus [44] = assay: Antibacterial activity methicillin-resistant Staphylococcus aureus 003 assessed as downregulation of fabF expression by qRT-PCR analysis; assay type: functional, organism-based
Cell membrane [45] = assay: Disruption of bacterial cell membrane in vancomycin-resistant Enterococcus assessed as as appearance of wrinkled cell incubated for 1 hr by DAPI/PI staning based confocal laser microscopic analysis
Cell membrane [46] = assay: Induction of inner membrane permeability in methicillin-resistant Staphylococcus aureus 003 assessed as fold change in MIC in presence of phosphatidylethanolamine; assay type: subcellular
Staphylococcus aureus [47] = assay: Antibacterial activity methicillin-resistant Staphylococcus aureus 003 assessed as downregulation of fabG expression by qRT-PCR analysis; assay type: functional, organism-based
Staphylococcus aureus [48] = assay: Antibacterial activity methicillin-resistant Staphylococcus aureus 003 assessed as increase in fluorescence intensity at 4 time MIC; assay type: functional
Staphylococcus aureus [49] = assay: In vivo antibacterial activity against methicilin-resistant Staphylococcus aureus infected in ICR mouse skin infection model assessed as reduction in bacterial burden at 5 mg/kg, ip preadministered with compound for 24 hrs followed by bacterial infection and measured after 3 days; assay type: functional; design: scale not given: the % may be the effect or the level left; conditions: time 96 hrs
Staphylococcus aureus [50] = assay: Antibacterial activity methicillin-resistant Staphylococcus aureus 003 assessed as inhibition of H2S production at 1/4 to 1/8 times MIC; assay type: functional, organism-based
Staphylococcus aureus [51] = assay: Antibacterial activity methicillin-resistant Staphylococcus aureus 003 assessed as inhibition of H2S production at 50 uM; assay type: functional
Staphylococcus aureus [52] = assay: Bactericidal activity against methicilin-resistant Staphylococcus aureus 003 at 4 times MIC measured after 24 hrs by time kill assay; assay type: functional, organism-based
Cell membrane [53] = assay: Disruption of bacterial cell membrane in methicilin-resistant Staphylococcus aureus 003 assessed as increase in red fluorescence intensity incubated for 1 hr by DAPI/PI staning based confocal laser microscopic analysis
Staphylococcus aureus [54] = assay: Bactericidal activity against Staphylococcus aureus at 4 times MIC measured after 24 hrs by time kill assay; assay type: functional, organism-based

## C[C@@H](O)[C@H]1C(=O)N2C(C(=O)O)=C(S[C@@H]3CN[C@H](C(=O)N(C)C)C3)[C@H](C)[C@H]12 [MEROPENEM]
Cell membrane [1]
  Activity: Active
Staphylococcus aureus [2]
  MIC: > 128 µg/mL
Staphylococcus aureus [3]
  MIC: > 128 µg/mL
Enterococcus [4]
  MIC: 8 µg/mL (≈ 20.9 µM)
Staphylococcus aureus [5]
  MIC: 2 µg/mL (≈ 5.22 µM)

## CC(C)=CCc1c(-c2ccc(O)cc2O)oc2c3c(cc(O)c2c1=O)OC(C)(C)C=C3 [MORUSIN]
Cell membrane [6]
  Activity: Dose-Dependent Effect
Staphylococcus aureus [7]
  Activity: Active
Cell membrane [8]
  fold change (FC): 8
Staphylococcus aureus [9]
  Activity: inactive
Staphylococcus aureus [10]
  Activity: Active
Staphylococcus aureus [11]
  Activity: Active
Staphylococcus aureus [2]
  MIC: 4 µg/mL (≈ 9.51 µM)
Staphylococcus aureus [12]
  Flu intensity: 334
Staphylococcus aureus [13]
  Activity: Dose-Dependent Effect
Staphylococcus aureus [14]
  Activity: Active
Staphylococcus aureus [15]
  Activity: Active
Cell membrane [16]
  fold change (FC): 8
Staphylococcus aureus [17]
  Activity: Active
Cell membrane [18]
  Activity: Active
Staphylococcus aureus [19]
  Activity: Active
Cell membrane [20]
  Activity: inactive
Staphylococcus aureus [21]
  Activity: Active
Staphylococcus aureus [22]
  Activity: Active
Enterococcus [23]
  Activity: Active
Staphylococcus aureus [24]
  Activity: Active
Staphylococcus aureus [25]
  Activity: 80%
Staphylococcus aureus [26]
  MBC: 16 µg/mL (≈ 38.1 µM)
Acinetobacter baumannii
  MIC: > 512 µg/mL
Staphylococcus aureus [27]
  MBC: 8 µg/mL (≈ 19 µM)
Staphylococcus aureus [28]
  Activity: Active
Staphylococcus aureus [29]
  Activity: 0.1 cm2
Enterococcus [30]
  Activity: Active
Enterococcus [31]
  MBC: 16 µg/mL (≈ 38.1 µM)
Staphylococcus aureus [32]
  Activity: Active
Staphylococcus aureus [33]
  Activity: 0.16 cm2
Cell membrane [34]
  Flu intensity: 0.9
Staphylococcus aureus [35]
  Activity: Dose-Dependent Effect
Escherichia coli
  MIC: > 512 µg/mL
Staphylococcus aureus [36]
  Activity: Dose-Dependent Effect
Staphylococcus aureus [37]
  Activity: inactive
Staphylococcus aureus [38]
  MBC: 16 µg/mL (≈ 38.1 µM)
Staphylococcus aureus [39]
  Activity: Active
Staphylococcus aureus [40]
  Activity: 90%
Staphylococcus aureus [3]
  MIC: 8 µg/mL (≈ 19 µM)
Staphylococcus aureus [41]
  inhibition (INH): 12%
Cell membrane [42]
  Activity: Dose-Dependent Effect
Staphylococcus aureus [43]
  Activity: 0.3 cm2
Staphylococcus aureus [44]
  Activity: Active
Cell membrane [45]
  Activity: Active
Enterococcus [4]
  MIC: 8 µg/mL (≈ 19 µM)
Cell membrane [46]
  fold change (FC): 32
Staphylococcus aureus [47]
  Activity: Active
Staphylococcus aureus [48]
  Flu intensity: 354
Staphylococcus aureus [49]
  Activity: 50%
Staphylococcus aureus [50]
  inhibition: Active
Staphylococcus aureus [5]
  MIC: 4 µg/mL (≈ 9.51 µM)

## CCc1ccc(CCOc2ccc(CC3SC(=O)NC3=O)cc2)nc1 (configuration not stated) [PIOGLITAZONE]
Staphylococcus aureus [51]
  inhibition at 50 µM: 54%

## CN[C@H](CC(C)C)C(=O)N[C@H]1C(=O)N[C@@H](CC(N)=O)C(=O)N[C@H]2C(=O)N[C@H]3C(=O)N[C@H](C(=O)N[C@H](C(=O)O)c4cc(O)cc(O)c4-c4cc3ccc4O)[C@H](O)c3ccc(c(Cl)c3)Oc3cc2cc(c3O[C@@H]2O[C@H](CO)[C@@H](O)[C@H](O)[C@H]2O[C@H]2C[C@](C)(N)[C@H](O)[C@H](C)O2)Oc2ccc(cc2Cl)[C@H]1O [VANCOMYCIN]
Staphylococcus aureus [52]
  Activity: inactive
Staphylococcus aureus [43]
  Activity: 0.16 cm2
Enterococcus [4]
  MIC: 64 µg/mL (≈ 44.2 µM)
Cell membrane [53]
  Activity: Active
Staphylococcus aureus [54]
  Activity: inactive
